Measured values: PubChem BioAssay (NCI)
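Cultured in 96-well plates, cells were exposed to test compound for 48 hours across five concentrations. Abbreviation: GI50, concentration required for 50% inhibition of growth. The concentration for full growth arrest is given as TGI.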

How the values were obtained:
Experiment in all cases: NCI-60 cell line screen, 48 h
[1] = tested on: A498 renal
[2] = tested on: SNB-75 CNS
[3] = tested on: OVCAR-5 ovarian
[4] = tested on: OVCAR-8 ovarian
[5] = tested on: K-562 leukemia
[6] = tested on: UACC-257 melanoma
[7] = tested on: PC-3 prostate
[8] = tested on: BT-549 breast
[9] = tested on: U251 CNS
[10] = tested on: SK-MEL-28 melanoma

Compound | GI50 [1] [µM] | TGI [1] [µM] | GI50 [2] [µM] | TGI [2] [µM] | GI50 [3] [µM] | TGI [3] [µM] | GI50 [4] [µM] | TGI [4] [µM] | GI50 [5] [µM] | TGI [5] [µM] | GI50 [6] [µM] | TGI [6] [µM] | GI50 [7] [µM] | TGI [7] [µM] | GI50 [8] [µM] | TGI [8] [µM] | GI50 [9] [µM] | TGI [9] [µM] | GI50 [10] [µM] | TGI [10] [µM]
C=C1C(=O)O[C@H]2[C@H]1CC/C(COC(=O)CCCCC(=O)OC/C1=C/CC[C@@]3(C)O[C@H]3[C@H]3OC(=O)C(=C)[C@@H]3CC1)=C\CC[C@@]1(C)O[C@@H]21 | 11 | > 100 | 20 | > 100 | 2.32 | 5.94 | 2.76 | 11 | 1.87 | > 100 | 1.82 | 4.4 | 2.43 | 7.46 | 1.37 | 3.36 | 2.58 | 8.91 | 2.85 | > 100
CCOc1c(Br)cc(C2C(C(=O)OC)=CN(C)C=C2C(=O)OC)cc1OC | 16.5 | 98.2 | 26.1 | > 100 | > 100 | > 100 | 68.1 | > 100 | 50.6 | > 100 | 72.3 | > 100 | 30 | > 100 | 76 | > 100 | 42.6 | > 100 | > 100 | > 100
N#C/C(=C\c1ccc(-c2ccc(Cl)cc2)o1)C(=O)Nc1ncc(Cc2ccc(Cl)cc2)s1 | 1.58 | 4.19 | 1.38 | 3.89 | 3.73 | > 100 | 1.81 | 5.76 | 3.92 | > 100 | 4.06 | > 100 | 1.5 | 3.67 | 2.34 | 10.4 | 1.09 | 2.43 | – | –
Oc1ccc2cc(Br)ccc2c1-c1c(O)ccc2cc(Br)ccc12 | 2.95 | 10.3 | 3.15 | 13.9 | 4.23 | 15.6 | 3.9 | 15.4 | 2.88 | 11.1 | 10.1 | 22.6 | 3.24 | 13 | 3.86 | 12.4 | 3.93 | 12.9 | 3.68 | 13.1
Cc1cc(N2CCCCC2)nc(N(CCCNc2ccnc3cc(Cl)ccc23)Cc2ccco2)n1 | 2.66 | 9.39 | 3.36 | 16.8 | 3 | 15 | 2.24 | 5.18 | 1.38 | 5.37 | 2.35 | 5.21 | 1.98 | 5.61 | 2.65 | 8.54 | 1.8 | 3.76 | 1.62 | 3.28
CC1=NN(c2ccccc2)C(=O)C1N=Nc1ccc([As](=O)(O)O)c(O)c1 (stereo not drawn) | – | > 100 | – | > 100 | – | > 100 | – | > 100 | – | > 100 | – | > 100 | – | > 100 | – | > 100 | – | > 100 | – | > 100
C[n+]1c(/C=C\c2ccc(Cl)cc2)ccc2ccccc21 | 4.02 | 91.3 | 23.2 | > 100 | 4.36 | > 100 | 6.82 | 91.1 | 8.69 | > 100 | 16.2 | 62.4 | 13.3 | > 100 | 4.78 | 76.4 | 3.7 | > 100 | 13.6 | 54.3
Cn1c2ccccc2c(=S)c2ccccc21 | – | > 100 | – | > 100 | – | > 100 | – | > 100 | – | > 100 | – | > 100 | – | > 100 | – | > 100 | – | > 100 | – | > 100
COC(=O)Nc1nc2ccc(Oc3ccc(NC(=O)Nc4cccc(C(=O)O)c4)cc3)cc2[nH]1 | 4.98 | > 25 | 9.98 | > 25 | 12 | > 25 | 9.4 | > 25 | 6.51 | > 25 | > 22.2 | > 25 | 8.44 | > 25 | 14.8 | > 25 | 7.35 | > 25 | 10 | > 25
COc1ccc2nc(-c3cc(-c4cc(OC)c(OC)c(OC)c4)n[nH]3)[nH]c2c1 | 2.23 | 10.2 | 2.23 | 6.34 | 3.03 | 12.6 | 1.15 | 3.2 | 2.01 | > 100 | 1.67 | 3.69 | 1.03 | 4.1 | 0.899 | 3.31 | 2.9 | 11.5 | 1.9 | 5.26
C=C1C(=O)O[C@@H]2C[C@@]3(C)CCC[C@H](C)C3=C[C@H]12 | – | 24.9 | – | 13.4 | – | 31.4 | – | 19.5 | – | 31.2 | – | 20.1 | – | 24.2 | – | 15.7 | – | 21.5 | – | 20.5
COc1cc(O)c2c(O)c3c(c4c2c1[C@]1(C4)C(C)=CCCC1(C)C)[C@H](O)[C@@]1(O)CC(=O)C(C(N)=O)=C(O)[C@@]1(O)C3=O | – | 0.743 | – | 0.794 | – | 1.23 | – | 1.73 | – | 1.52 | – | 0.931 | – | 0.834 | – | 1.54 | – | 1.17 | – | 2.15
CCCN(CCC)C(=O)C1=Cc2ccc(-c3ccc(C(=O)N4CCCC4)cc3)cc2N=C(N)C1 | 9.01 | 71.1 | 3.8 | 30.6 | 20.1 | 64.9 | 16.1 | 68.5 | 4.45 | 26.9 | 9.03 | 22.3 | 8.56 | > 95.4 | 12.8 | 33.3 | 7.69 | 24.6 | 8.91 | 24.8
O=C1NN(c2ccc(C(=O)O)cc2)C(=O)/C1=C\c1ccc([N+](=O)[O-])o1 | > 100 | > 100 | > 100 | > 100 | > 100 | > 100 | 51.1 | > 100 | 27.3 | 72.1 | > 100 | > 100 | > 100 | > 100 | > 100 | > 100 | 79.9 | > 100 | > 100 | > 100
